Among the data in patent US9000028B2, “Indole and indazole compounds as an inhibitor of cellular necrosis” (LG Life Sciences Ltd., priority 2007, dated 2015) are EC50 values, retold here.

Each structure is given as a SMILES string.

One experiment relates to primary hepatocytes isolated from rats. Put plainly: Hepatocyte protective effect against substances deriving hepatocyte toxicity (WST-1 viability). The format is cell-based. The settings on record: Rattus norvegicus, Hepatocyte, doxorubicin, 24-48 h, read-out: EC50, cell protective effects against doxorubicin in hepatocytes. Here is the method:
Various endogenous/exogenous attacks on the cells trigger the mechanisms of cell death which is broadly classified into two types, i.e. apoptosis or necrosis. Using these cell death mechanisms, in the present experimental example, primary hepatocytes isolated from rats were treated with drugs which were clinically shown to result in serious side-effects of hepatocyte toxicity or various chemicals which derive cell death, and the compounds synthesized in the Examples were estimated for their hepatocyte protective effects, after 24-48 h. The substances used to derive hepatocyte death include CCl4, ActD, H2O2, doxorubicin, anti-Fas Ab/Actinomycin D, acetaminophen, EtOH, CdCl2, palmitate, stearate, cyclophosphamide, terfenadine, diclofenac, simvastatin, and adefovir. Primary hepatocytes were isolated using the method of Seglen PO (Experimental Cell Research 74 (1972) pp 450-454). Briefly, hepatocytes were isolated according to the two-step collagenase perfusion method, and dead cells were removed by low speed (500 rpm) centrifugation for 10 min using percoll gradient (Kreamer B L etc, In Vitro Cellular & Developmental Biology 22 (1986) pp 201-211). During this step, the viability of cells was maintained 90% or above. The cells were suspended in HepatoZYME media (Gibco BRL), and the number of cells was counted. 1.5×10^4 cells in 100 μl were placed into the collagen-coated 96-well plate (BD biocoat), and adhered on the bottom for 3-4 h.
In order to assess the hepatocyte protective effect, above adhered cells were pretreated with the Example compounds for 30 min. At this time, the concentration of the Example compounds were serially diluted by 2-fold or 3-fold over 5 steps starting from 30 uM, 10 uM or 1 uM depending on the experiments, and the final concentration of DMSO was adjusted to 0.2%. 30 min after the treatment by compounds, cells were treated by the substances deriving hepatocyte death or hepatotoxic drugs at the concentrations indicated in Table 1. After 24-48 h, the viability of cells was determined to estimate the hepatocyte protective effects. The viability of cells was determined using WST-1 (MK-400, […]) method by the absorbance at 440 nm. Hepatocyte protective effects of the Example compounds were represented by “EC50,” which was calculated from measured values. “EC50” herein means the concentration of the compound at which 50% of maximum protective effect is observed in the experiment.
(Formazan colour is commonly taken as a measure of viable cells.)
As a reminder, the EC50 is the concentration giving half of the maximal effect. Consider `CNC1CCC(Nc2cc(Cl)cc3cc(-c4ccccc4)[nH]c23)CC1` (stereo not shown) [Example 101, N-(5-chloro-2-phenyl-1H-indol-7-yl)-N′-methyl-cyclohexane-1,4-diamine], for which the EC50 turned out to be 80 nM.
The same measure, in the same setting: under `Clc1cc(Nc2ccccn2)c2[nH]c(-c3ccccc3)cc2c1` [Example 113, (5-Chloro-2-phenyl-1H-indol-7-yl)-pyridin-2-yl-amine] stands 350 nM.
Turning to `Cc1cc(NC2CCCC2)c2[nH]c(-c3ccccn3)cc2c1` [Example 1, Cyclopentyl-[5-methyl-2-(pyridin-2-yl)-1H-indol-7-yl]-amine], the EC50 was found to be 100 nM.
Still for that read-out and setting: under `Clc1cc(NC2CCCC2)c2[nH]cc(-c3ccccc3)c2c1` [Example 80, Cyclopentyl-(5-chloro-3-phenyl-1H-indol-7-yl)-amine] stands 100 nM.
Same read-out and setting: under `CCOC(=O)c1cc(NC2CCCC2)c2[nH]c(-c3ccccc3)cc2c1` [Example 28, 7-(Cyclopentyl)amino-2-phenyl-1H-indole-5-carboxylic acid ethyl ester] stands 170 nM.
Turning to `Cc1cc(NC(=O)Nc2ccccc2)c2[nH]c(-c3ccccn3)cc2c1` [Example 24, 1-Phenyl-3-[5-methyl-2-(pyridin-2-yl)-1H-indol-7-yl]-urea], the EC50 was 900 nM.
The same measure, in the same setting: under `Cc1ccc(Nc2cc(Cl)cc3cc(-c4ccccc4)[nH]c23)nc1` [Example 114, (5-Chloro-2-phenyl-1H-indol-7-yl)-5-methyl-pyridin-2-yl-amine] stands 370 nM; under `O=S1(=O)CCC(N2CCC(Nc3cc(F)cc4cc(-c5ccccc5)[nH]c34)CC2)CC1` [Example 99, (5-Fluoro-2-phenyl-1H-indol-7-yl)-[1-(1,1-dioxo-tetrahydrothiopyran-4-yl)-piperidin-4-yl]-amine], 200 nM; under `OCc1cc(NC2CCCC2)c2[nH]c(-c3ccccc3)cc2c1` [Example 29, Cyclopentyl-[5-hydroxymethyl-2-phenyl-1H-indol-7-yl]-amine], 70 nM.
The same measure, in the same setting: under `O=C1CN(Cc2c(-c3ccccc3)[nH]c3c(NCC4CCOCC4)cc(Cl)cc23)CCN1` [Example 71, (Tetrahydropyran-4-ylmethyl)-(5-chloro-3-(2-oxo-piperazin-4-yl)methyl-2-phenyl-1H-indol-7-yl)-amine] stands 254 nM.
On the same count and under the same terms, under `O=C(O)Cc1cccc(-c2cc3cc(Cl)cc(NCC4CCOCC4)c3[nH]2)c1` [Example 127, 2-{3-[5-Chloro-7-(tetrahydropyran-4-ylmethyl)amino-1H-indol-2-yl]-phenyl}-acetic acid] stands 590 nM.
Regarding `COc1ccc(-c2n[nH]c3c(NCC4CCOCC4)cccc23)cc1` [Example 159, [3-(4-Methoxyphenyl)-1H-indazol-7-yl)-(tetrahydropyran-4-ylmethyl)-amine], the half-maximal effective concentration (EC50) was found to be 110 nM.
On the same count and under the same terms, under `Cc1cc(N(C)C)c2[nH]c(-c3ccccn3)cc2c1` [Example 17, Dimethyl-[5-methyl-2-(pyridin-2-yl)-1H-indol-7-yl]-amine] stands 540 nM; under `CN(C)c1cc(Cl)cc2cc(-c3ccccc3)n(C)c12` [Example 65, Dimethyl-(5-chloro-1-methyl-2-phenyl-1H-indol-7-yl)amine], 600 nM.
Regarding `COC(=O)Cc1cccc(-c2cc3cc(Cl)cc(NC4CCCC4)c3[nH]2)c1` [Example 131, 2-[3-(5-Chloro-7-cyclopentylamino-1H-indol-2-yl)-phenyl]-acetic acid methyl ester], the EC50 is 360 nM.
As to `Clc1cc(NC2CCCC2)c2[nH]c(-c3ccccc3)cc2c1` [Example 46, Cyclopentyl-(5-chloro-2-phenyl-1H-indol-7-yl)-amine], the EC50 was determined as 50 nM.
The same measure, in the same setting: under `Clc1cc(NC2CCOCC2)c2[nH]c(-c3cccc(CC4CCNC4)c3)cc2c1` (stereo not shown) [Example 149, [5-Chloro-2-(3-pyrrolidin-4-ylmethylphenyl)-1H-indol-7-yl]-(tetrahydropyran-4-yl)-amine] stands 550 nM; under `Clc1cc(NC2CCCCC2)c2[nH]c(-c3ccccc3)cc2c1` [Example 47, Cyclohexyl-(5-chloro-2-phenyl-1H-indol-7-yl)-amine], 50 nM; under `OCc1cccc(-c2cc3cc(Cl)cc(NC4CCCC4)c3[nH]2)c1` [Example 125, [3-(5-Chloro-7-cyclopentylamino-1H-indol-2-yl)-phenyl]-methanol], 111 nM.
Still for that read-out and setting: under `c1cc(NC2CCCC2)c2[nH]ncc2c1` [Example 153, Cyclopentyl-(1H-indazol-7-yl)-amine] stands 2100 nM; under `O=C(O)C1CCC(Nc2cc(Cl)cc3cc(-c4ccccc4)[nH]c23)CC1` (stereo not shown) [Example 102, 4-(5-Chloro-2-phenyl-1H-indol-7-yl)amino-cyclohexane-1-carboxylic acid], 300 nM; under `COC(=O)Cc1cccc(-c2cc3cc(Cl)cc(NCC4CCOCC4)c3[nH]2)c1` [Example 130, 2-{3-[5-Chloro-7-(tetrahydropyran-4-ylmethyl)amino-1H-indol-2-yl]-phenyl}-acetic acid methyl ester], 380 nM.
Take `O=C(Cc1cc(NC2CCCC2)c2[nH]c(-c3ccccc3)cc2c1)N1CCCC1` [Example 119, 2-(7-Cyclopentylamino-2-phenyl-1H-indol-5-yl]-1-pyrrolidin-1-yl-ethanone]: the EC50 is 140 nM.
On the same count and under the same terms, under `Cc1cc(NC2CCN(S(C)(=O)=O)CC2)c2[nH]c(-c3ccccc3)cc2c1` [Example 91, [1-(Methanesulfonyl)piperidin-4-yl]-(5-methyl-2-phenyl-1H-indol-7-yl)-amine] stands 42 nM; under `Cc1cc(NC2CCCC2)c2[nH]c(-c3cnccn3)cc2c1` [Example 6, Cyclopentyl-[5-methyl-2-(pyrazin-2-yl)-1H-indol-7-yl]-amine], 300 nM.
`COC(=O)Cc1ccc(-c2cc3cc(Cl)cc(NCC4CCOCC4)c3[nH]2)cc1` [Example 144, 2-{4-[5-Chloro-7-(tetrahydropyran-4-ylmethyl)amino-1H-indol-2-yl]phenyl}-acetic acid methyl ester]: the half-maximal effective concentration (EC50) came to 300 nM.
Same read-out and setting: under `Cc1cc(NC2CCCCC2)c2[nH]c(-c3ccccn3)cc2c1` [Example 11, Cyclohexyl-[5-methyl-2-(pyridin-2-yl)-1H-indol-7-yl]-amine] stands 100 nM; under `O=S1(=O)CCN(Cc2cc(NC3CCOCC3)c3[nH]c(-c4cccc(F)c4)cc3c2)CC1` [Example 75, (Tetrahydropyran-4-yl)-(5-(1,1-dioxo-thiomorpholin-4-yl)methyl-2-(3-fluorophenyl)-1H-indol-7-yl)-amine], 120 nM; under `O=S1(=O)CCN(Cc2cc(NC3CCOCC3)c3[nH]c(-c4ccccc4)c(Br)c3c2)CC1` [Example 72, (Tetrahydropyran-4-yl)-(3-bromo-5-(1,1-dioxo-thiomorpholin-4-yl)methyl-2-phenyl-1H-indol-7-yl)-amine], 60 nM.
In the case of `Cc1cc(NC2CCCC2)c2[nH]ncc2c1` [Example 155, Cyclopentyl-(5-methyl-1H-indazol-7-yl)-amine], the half-maximal effective concentration (EC50) came out at 1300 nM.
Take `O=C(C1CCCO1)N1CCC(Nc2cc(CN3CCS(=O)(=O)CC3)cc3cc(-c4ccccc4)[nH]c23)CC1` (stereo not shown) [Example 98, {4-[5-(1,1-Dioxo-thiomorpholin-4-yl)methyl-2-phenyl-1H-indol-7-yl]amino-piperidin-1-yl}-(tetrahydrofuran-2-yl)-methanone]: the EC50 is 110 nM.
Take `Clc1cc(NCC2CCCC2)c2[nH]c(-c3ccccc3)cc2c1` [Example 49, Cyclopentylmethyl-(5-chloro-2-phenyl-1H-indol-7-yl)-amine]: the concentration for a half-maximal effect (EC50) came out at 133 nM.
On the same count and under the same terms, under `Cc1cc(NC2CCN(C)CC2)c2[nH]c(-c3ccccn3)cc2c1` [Example 13, (1-Methylpiperidin-4-yl)-[5-methyl-2-(pyridin-2-yl)-1H-indol-7-yl]-amine] stands 400 nM.

Still in this experiment, the particulars now being: doxorubicin; rat primary hepatocytes; 24-48 h; read-out: EC50, cell protective effects against doxorubicin in hepatocytes.
In the case of `COc1ccc(-c2cc3cc(CN4CCS(=O)(=O)CC4)cc(NC4CCOCC4)c3[nH]2)cc1` [Example 39, (Tetrahydropyran-4-yl)-[2-(4-methoxy)phenyl-5-(1,1-dioxo-thiomorpholin-4-yl)methyl-1H-indol-7-yl]amine], the EC50 came out at 330 nM.
